Data: patent US9045523B2, “Compounds” (PHAROS PHARMACEUTICALS INC., priority 2006, dated 2015)

How the values were obtained:
follistatin = follistatin (Rattus norvegicus, UniProt P21674); details: Innis et al; cited from earlier work
FGF receptors = details: Yeh et al; cited from earlier work
[1] = biological target: pro-inflammatory chemokine MCP-1 (Homo sapiens, UniProt P13500); details: Yonghao et al; cited from earlier work
hepatocyte growth factor = hepatocyte growth factor (Homo sapiens, UniProt P14210); details: Zhou et al; cited from earlier work
hepatocyte growth factor, sequence (P14210 31-127 limits assumed, species assumed): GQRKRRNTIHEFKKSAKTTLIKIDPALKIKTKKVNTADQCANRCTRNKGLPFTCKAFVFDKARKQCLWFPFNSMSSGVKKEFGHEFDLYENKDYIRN

[2] = system: C-type lectin-like domain of a recombinant natural killer cell receptor; details: Kogelberg et al; cited from earlier work
inflamed joints = details: Ronca et al; cited from earlier work
GCSF synthesis = test: PHA stimulated human whole blood cytokine synthesis: GCSF; format: cell-based; details: 0.01 μM, days 1-4
Experimental: (§1) Blood was taken from a healthy young volunteer, into heparin Vacutainers®. Whole-blood was diluted to give a final concentration of 1/10 in culture medium (CM). CM consisted of RPMI 1640 with L-glutamine, penicillin and streptomycin. PHA (phytohaemagglutinin) solution and N-acetyl-β,β-diglucosylamine octasulphate (DOS) and PHA solution were added to non-control samples. Final drug concentrations tested were 100 μM, 1 μM, 0.1 μM and 0.01 μM. All samples were tested in triplicate.
(§2) Reagents were placed in four sets of 24-well (6×4) flat-bottomed plates (Corning US) and incubated for 1, 2, 3 and 4 days respectively (incubator conditions: 37° C., humid and 5% CO2). […]
(§3) The protocol of Lagrelius et al. was followed (Cytokine, 2006, 33, pp. 156-165). The culture supernatants were analysed once for concentrations of IL-1α, IL-1β, IL-2, IL-4, IL-5, IL-6, IL-7, IL-10, IL-12, IL-13, IL-17, IFNγ, GCSF, GM-CSF, MCP-1, RANTES, VEGF and TNFα. The cytokines were measured simultaneously using a Bio-Plex assay. […] A monoclonal antibody specific for each cytokine of interest is coupled onto a particular set of beads with a known internal fluorescence, and several combinations of cytokine antibody coated beads can be included and thus multiple cytokines are measured simultaneously. […] A minimum of 100 beads per region were analysed. […]

VEGF synthesis = test: PHA treated human whole blood cytokine synthesis: VEGF; format: cell-based; details: 0.01 μM; human whole blood in which VEGF synthesis has been inhibited by PHA; days 1-4
Experimental: as §1, §2, §3

IL-10 synthesis = test: PHA stimulated human whole blood cytokine synthesis: IL-10; format: cell-based; details: 0.01 μM, days 1-4
Experimental: as §1, §2, §3

IL-2 synthesis = test: PHA stimulated human whole blood cytokine synthesis: IL-2; format: cell-based; details: 0.01 μM, days 1-4
Experimental: as §1, §2, §3

TNFα synthesis [3] = test: LPS stimulated U937 macrophage TNFα synthesis; format: cell-based, human; details: PMA differentiated U937; 80 nM lps 72 hours; 0.10, 1.00, 10.00 and 100.00 μM
Experimental: U937 human monocytes were incubated with 5 μg/ml PMA (phorbol myristate acetate) for 5 days in order to induce differentiation. N-acetyl-β,β-diglucosylamine octasulphate (DOS) was added to the macrophages produced at concentrations of 0 (control), 0.10, 1.00, 10.00 and 100.00 μM.

TNFα synthesis [4] = test: TNFα synthesis in whole blood stimulated with 5 μg/ml PHA; format: cell-based; details: human whole blood 1:10, 5 μg/ml PHA for 4 days; 0.01, 0.1 or 1 μM; ELISA days 1-4
Experimental: Human whole blood was diluted 1:10 in RPMI and stimulated with 5 μg/ml phytohaemagglutinin (PHA) for 4 days in the absence or presence of N-acetyl-β,β-diglucosylamine octasulphate (DOS) or N-acetyl-β,β-diglucosylamine oligosulphate 1200 at concentrations of 0.01, 0.1 or 1 μM. The TNFα concentrations were assayed by ELISA on days 1, 2, 3 and 4.

IL-1β synthesis = test: PHA stimulated human whole blood cytokine synthesis: IL-1β; format: cell-based; details: 0.01 μM, days 1-4
Experimental: as §1, §2, §3

IL-6 synthesis = test: PHA stimulated human whole blood cytokine synthesis: IL-6; format: cell-based; details: 0.01 μM, days 1-4
Experimental: as §1, §2, §3

IL-7 synthesis = test: PHA stimulated human whole blood cytokine synthesis: IL-7; format: cell-based; details: 0.01 μM, days 1-4
Experimental: as §1, §2, §3

IL-1α synthesis = test: PHA stimulated human whole blood cytokine synthesis: IL-1α; format: cell-based; details: 0.01 μM, days 1-4
Experimental: as §1, §2, §3

GM-CSF synthesis = test: PHA stimulated human whole blood cytokine synthesis: GM-CSF; format: cell-based; details: 0.01 μM, days 1-4
Experimental: as §1, §2, §3

IL-13 synthesis = test: PHA stimulated human whole blood cytokine synthesis: IL-13; format: cell-based; details: 0.01 μM, days 1-4
Experimental: as §1, §2, §3

IL-17 synthesis = test: PHA stimulated human whole blood cytokine synthesis: IL-17; format: cell-based; details: 0.01 μM, days 1-4
Experimental: as §1, §2, §3

TNFα synthesis [5] = test: PHA stimulated human whole blood cytokine synthesis: TNFα; format: cell-based; details: 0.01 μM, days 1-4, Bio-Plex
Experimental: as §1, §2, §3

IL-4 synthesis = test: PHA stimulated human whole blood cytokine synthesis: IL-4; format: cell-based; details: 0.01 μM, days 1-4
Experimental: as §1, §2, §3

IL-5 synthesis = test: PHA stimulated human whole blood cytokine synthesis: IL-5; format: cell-based; details: 0.01 μM, days 1-4
Experimental: as §1, §2, §3

IFNγ synthesis = test: PHA stimulated human whole blood cytokine synthesis: IFNγ; format: cell-based; details: 0.01 μM, days 1-4
Experimental: as §1, §2, §3

[6] = Cahalon et al; cited from earlier work
articular inflammation = details: cited from earlier work
β-glucosidases = details: Kolarova et al; cited from earlier work
IFN synthesis = details: antigen stimulated mice spleen cells in vitro; cited from earlier work
interleukin-2 synthesis = details: antigen stimulated mice spleen cells in vitro; cited from earlier work
feline herpes infection = details: reactivation of feline herpes infection; Roberts et al; cited from earlier work
interleukin-10 synthesis = details: antigen stimulated mice spleen cells in vitro; cited from earlier work
[7] = system: antigen stimulated mice spleen cells; details: in vitro; cited from earlier work
[8] = acid conditions of the stomach; cited from earlier work

follistatin, sequence (P21674 93-165 limits assumed): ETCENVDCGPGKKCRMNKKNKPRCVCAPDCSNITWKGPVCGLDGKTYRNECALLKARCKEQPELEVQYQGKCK
pro-inflammatory chemokine MCP-1, sequence (P13500 24-99): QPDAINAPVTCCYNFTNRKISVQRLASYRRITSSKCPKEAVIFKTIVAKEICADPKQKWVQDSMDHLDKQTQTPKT

O=S(=O)(O)OC[C@H]1O[C@@](COS(=O)(=O)O)(O[C@H]2O[C@H](COS(=O)(=O)O)[C@@H](OS(=O)(=O)O)[C@H](OS(=O)(=O)O)[C@H]2OS(=O)(=O)O)[C@@H](OS(=O)(=O)O)[C@@H]1OS(=O)(=O)O [sucrose octasulphate]
binding to follistatin (follistatin): bind
FGF dependent dimerisation of FGF receptors (FGF receptors): induced FGF dependent dimerisation of FGF receptors
binding to MCP-1 [1]: bind
binding to hepatocyte growth factor (hepatocyte growth factor): bind
binding to natural killer cell receptor C-type lectin-like domain [2]: bind

chondroitin sulphate
inflammatory cell accumulation and inflammation (inflamed joints): reduces inflammatory cell accumulation and inflammation

2-hydroxysucrose heptasulphate
FGF dependent dimerisation of FGF receptors (FGF receptors): much lesser extent

CC(=O)N([C@@H]1O[C@H](COS(=O)(=O)O)[C@@H](OS(=O)(=O)O)[C@H](OS(=O)(=O)O)[C@H]1OS(=O)(=O)O)[C@@H]1O[C@H](COS(=O)(=O)O)[C@@H](OS(=O)(=O)O)[C@H](OS(=O)(=O)O)[C@H]1OS(=O)(=O)O [N-acetyl-β,β-diglucosylamine octasulphate]
PHA stimulated synthesis of GCSF (GCSF synthesis): inhibits
level of VEGF (VEGF synthesis): increased
PHA stimulated synthesis of IL-10 (IL-10 synthesis): inhibits
PHA stimulated synthesis of IL-2 (IL-2 synthesis): inhibits
inhibition of TNFα synthesis (TNFα synthesis [3]): inhibited TNFα synthesis at all concentrations down to 0.1 μM
inhibition of TNFα synthesis (TNFα synthesis [4]): effectively inhibit TNFα synthesis
PHA stimulated synthesis of IL-1β (IL-1β synthesis): inhibits
PHA stimulated synthesis of IL-6 (IL-6 synthesis): inhibits
level of IL-7 (IL-7 synthesis): increased
PHA stimulated synthesis of IL-1α (IL-1α synthesis): inhibits
PHA stimulated synthesis of GM-CSF (GM-CSF synthesis): inhibits
PHA stimulated synthesis of IL-13 (IL-13 synthesis): inhibits
PHA stimulated synthesis of IL-17 (IL-17 synthesis): inhibits
PHA stimulated synthesis of TNFα (TNFα synthesis [5]): inhibits
PHA stimulated synthesis of IL-4 (IL-4 synthesis): inhibits
PHA stimulated synthesis of IL-5 (IL-5 synthesis): inhibits
PHA stimulated synthesis of IFNγ (IFNγ synthesis): inhibits

4,6-dihydroxysucrose hexasulphate
FGF dependent dimerisation of FGF receptors (FGF receptors): not at all

CC(=O)N[C@H]1C(O)O[C@H](CO)[C@@H](O[C@@H]2OC(C(=O)O)=C[C@H](O)[C@H]2O)[C@@H]1O (stereo partly drawn) [desulphated heparin disaccharide, O-(α-L-ido-4-enepyranosyluronic acid)-(1→4)-2-deoxy-N-acetyl-D-glucoseamine]
effectiveness as an anti-inflammatory agent [6]: ineffective

OC[C@H]1O[C@@H](N[C@@H]2O[C@H](CO)[C@@H](O)[C@H](O)[C@H]2O)[C@H](O)[C@@H](O)[C@@H]1O [di-β-D-glucosylamine]
articular inflammation (articular inflammation; mice, parenteral routes, Bolton et al): inhibits articular inflammation
activity by the oral route (articular inflammation; oral route): inactive
inhibition of β-glucosidases (β-glucosidases): inhibit β-glucosidases
IFN synthesis (IFN synthesis): inhibits
interleukin-2 synthesis (interleukin-2 synthesis): inhibits
development of ocular inflammation (feline herpes infection): prevents the development of ocular inflammation
interleukin-10 synthesis (interleukin-10 synthesis): inhibits
antigen induced immune cell proliferation [7]: inhibits
hydrolysis of the glycosylamine group [8]: readily hydrolysed
